# Results from article PMC9995496, “A screen for MeCP2-TBL1 interaction inhibitors using a luminescence-based assay” (Scientific Reports, 2023).
# Molecular target: T1, MeCP2-TBL1 interaction (MeCP2-SmBiT / TBL1-LgBiT) (Mus musculus, UniProt Q9QXE7)
# T1 construct: expressed in transfected cells; crude lysate used as a cell-free assay
# T1 sequence (Q9QXE7 166-527): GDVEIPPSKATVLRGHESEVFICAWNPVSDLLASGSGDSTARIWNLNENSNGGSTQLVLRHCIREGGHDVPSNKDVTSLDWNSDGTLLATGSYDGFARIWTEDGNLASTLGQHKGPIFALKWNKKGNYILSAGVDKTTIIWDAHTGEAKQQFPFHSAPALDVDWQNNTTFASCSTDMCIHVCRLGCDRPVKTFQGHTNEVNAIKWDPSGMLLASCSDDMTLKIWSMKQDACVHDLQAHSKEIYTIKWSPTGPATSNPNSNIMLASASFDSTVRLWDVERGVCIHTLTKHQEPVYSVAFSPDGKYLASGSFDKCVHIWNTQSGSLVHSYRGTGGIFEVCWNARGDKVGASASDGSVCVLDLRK
# Test: MeCP2-TBL1 NanoLuc luciferase complementation assay (cell-free, extracts of transfected HEK293 cells);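 further: each compound tested at 20 µM final concentration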
# Assay type: binding, human
# Outline: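 Cell-free split NanoLuc: lysate of HEK293 cells co-expressing the MeCP2 C-terminal half-SmBiT and TBL1 WD domain-LgBiT, mixed 1:1 with furimazine. After 30 min at room temperature, luminescence was plate-median normalized.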
# [1] = primary screen of Asinex library, single well per compound
# [2] = primary screen of the Asinex library, sheet "Sargen output Asinex library", one well per compound
# [3] = primary screen of the Asinex library, sheet "Sargen output Asinex library", one well per compound, Batch Ref. 1
Structure (SMILES),Inhibition percent [1],Inhibition percent [2] [%],also measured
CC(=O)c1ccc(NC(=O)CN2CCC[C@@H]3O[C@@H]4c5cc(Cl)ccc5OC(C)(C)[C@H]4C[C@@H]32)cc1 [BDG_51129056],-1.84,–,–
COc1cccc2c1OC(C)(C)[C@@H]1C[C@H]3CN(CC(=O)Nc4ccc(C(C)=O)cc4)CC[C@H]3O[C@@H]21 [BDG_51129062],4.58,–,–
Cc1cc(C)n(-c2cccc(C(=O)N3C[C@@H](c4ccccc4)[C@@]4(CCCCC(=O)N4)C3)c2)n1 [BDH_20395756],–,-4.76,–
C[C@]12C[C@@H](Cc3ccccc3)N(C(=O)c3cccc(Cn4cccn4)c3)[C@H]1CCCC(=O)N2 [BDH_24639058],-1.63,–,–
Cc1c(F)cccc1NC(=O)CN1[C@H](Cc2ccccc2)C[C@]2(C)NC(=O)CCC[C@H]12 [BDH_24639961],–,–,Inhibition percent [3]: 0.80%
Cc1c(NC(=O)CN2[C@H](Cc3ccccc3)C[C@]3(C)NC(=O)CCC[C@H]23)cnn1C [BDH_24639966],0.23,–,–
Cc1cc(C)nc(NCCC(=O)N2[C@H](Cc3ccccc3)C[C@]3(C)NC(=O)CCC[C@H]23)n1 [BDH_24639981],–,–,Inhibition percent [3]: -1.66%
Clc1cccc(Cc2cncc(C3CCCN3Cc3ccnc(N4CCOCC4)n3)n2)c1 (stereo not shown) [BDH_27227771],–,3.31,–
O=C1CCCC[C@]2(CN(C(=O)CCc3ccc(F)cc3)C[C@H]2c2ccccc2)N1 [BDH_32219010],-1.17,–,–
O=C(N1CCC2(CC1)COC(Cc1cccc(F)c1)C2)C1(c2cccc(F)c2)CCOCC1 (stereo not shown) [BDH_32247901],–,0.54,–
C[C@]12C[C@@H](c3ccccc3)N(CC(=O)N3CC(=O)Nc4ccccc43)[C@H]1CCCCCN2 [BDH_32250993],1.88,–,–
CC(=O)N[C@@]12CN(CC(=O)Nc3cccc4c3CCCC4)CC[C@@H]1[C@@H](c1ccccc1)N(C)C2 [BDH_32251192],–,4.01,–
O=C1OC2(CCN(C(=O)C3(c4ccccc4)CCCC3)C2)CN1Cc1ccc(F)cc1 (stereo not shown) [BDH_32289921],–,0.62,–
O=C(CN1CCc2ccccc2C1)N1CCCC2(CC1)CN(c1cccc(Cl)c1)C(=O)O2 (stereo not shown) [BDH_32295686],–,–,Inhibition percent [3]: 0.75%
O=C(c1ccc(Cc2ccc(F)cc2)nc1)N1CCCC2(CC1)CN(c1ccccc1)C(=O)O2 (stereo not shown) [BDH_32295955],-2.84,–,–
O=C(c1ccc(Cc2cccc(F)c2)nc1)N1CCCC2(CC1)CN(c1ccccc1)C(=O)O2 (stereo not shown) [BDH_32296010],-0.22,–,–
COc1ccccc1Cc1ccc(C(=O)N2CCCC3(CC2)CN(c2ccccc2)C(=O)O3)cn1 (stereo not shown) [BDH_32296020],–,-0.57,–
O=C1COC2(CCCN(C(=O)c3cccc4cccnc34)CC2)CN1CCc1ccccc1 (stereo not shown) [BDH_32296359],–,-0.70,–
O=C(c1ccnc(Cc2cccc(F)c2)c1)N1CCC[C@]2(C[C@@H](Oc3ccc(F)cc3)CO2)C1 [BDH_32304392],–,5.07,–
Cn1cc(CC(=O)N2C[C@@H](c3cccc(F)c3)[C@@]3(CCCCC(=O)N3)C2)c2ccccc21 [BDH_32306274],–,–,Inhibition percent [3]: 1.56%
CC(C)(NC(=O)c1ccccc1)C(=O)N1C[C@@H](c2ccc(F)cc2)[C@@]2(CCCC(=O)N2)C1 [BDH_32326628],–,0.18,–
CC(C)(NC(=O)c1ccccc1)C(=O)N1C2CCC1CC(Cc1ccc3ccncc3c1)C2 (stereo not shown) [BDH_32326823],–,-1.86,–
CC(C)(NC(=O)Cc1ccccc1)C(=O)N1CCCC(Cc2cccc3ncccc23)C1 (stereo not shown) [BDH_32327552],-4.87,–,–
CC(C)(NC(=O)Cc1ccccc1)C(=O)N1CCCC(Cc2cccn3ccnc23)CC1 (stereo not shown) [BDH_32327598],-2.43,–,–
CC(C)(NC(=O)CCc1ccccc1)C(=O)N1CCC(Cc2ccc3ncccc3c2)CC1 [BDH_32328019],-2.64,–,–
CN(C)c1cncc(C2CCCN2C(=O)C2(C)CCN(C(=O)c3cccc(F)c3)CC2)n1 (stereo not shown) [BDH_32329258],–,-1.39,–
Cc1cccc(Oc2cncc(C3CCCN(C(=O)c4ccc(-n5cccn5)nc4)C3)n2)c1 (stereo not shown) [BDH_32330488],–,5.13,–
O=C1OC2(CCCN(C(=O)c3ccc(-n4cccn4)nc3)CC2)CN1Cc1ccccc1 (stereo not shown) [BDH_32330719],–,-2.98,–
